Consider five compounds from ChEMBL document CHEMBL1158744, “Leptolide, a new furanocembranolide diterpene from Leptogorgia alba” (J Nat Prod, 2005).

What is called IC50 is the concentration needed to halve the response being measured. A higher IC50 goes with weaker potency in that assay.

Each structure is given as a SMILES string.

In this assay the test system is Plasmodium falciparum. The experiment in a line: Antiplasmodial activity against Plasmodium falciparum W2 after 48 hrs in PicoGreen microfluorimetry. The class given is functional, organism-based. The note with it: W2, 48 h.
With `C=C(C)[C@H]1CC2=C(C(=O)OC)C=C(O2)[C@H]2O[C@]2(C)C[C@H]2C=C(C(=O)O2)[C@H](OC(C)=O)C1`, half-maximal inhibition (IC50) required 109 µM. Under `C=C(C)[C@@H]1CCC2=C[C@@H](OC2=O)[C@@H](C(=C)C)C2=CC(C(=O)OC)=C(C1)O2` [DEOXYPSEUDOPTEROLIDE] stands 50 µM; under `C=C(C)[C@H]1CC2=C(C(=O)OC)C=C(O2)[C@H]2O[C@]2(C)C[C@@H]2OC(=O)[C@]3(O[C@@H]23)[C@H](OC(C)=O)C1` [LOPHOLIDE], 105 µM; under `C=C(C)[C@@H]1CC2=C(C=O)C=C(O2)[C@@H]2O[C@@]2(C)C[C@H]2OC(=O)[C@@]3(O[C@H]23)[C@@H](OC(C)=O)C1` [LOPHOTOXIN], 74 µM. Consider `C=C(C)[C@H]1CCC2=C[C@@H](C[C@]3(C)O[C@H]3C3=CC(C=O)=C(C1)O3)OC2=O` [PUKALIDE ALDEHYDE], for which the IC50 stood at 134 µM.
